Here are results for twelve molecules from patent US5925664A, “Method for treating ocular hypertension and glaucoma” (Sankyo Company, Limited, priority 1994, dated 1999).

The subject of assay [1] is ocular hypertension model. The assay can be described thus: Ocular tension lowering effect in rabbit ocular hypertension model (eye drops). Type of assay: in vivo, New Zealand white rabbits. The settings on record: 50 μl by dropping; for AUC (area between the ocular tension curves of control group and drug application group): over 2 hours; for Maximum value of the lowered ocular tension: over 2 hours at intervals of 30 minutes. Here is the method:
New Zealand white rabbits each weighing 2 to 3 kg were used.
According to the method reported by Kurihara et al. [Ophthalmologic Pharmacology 4, 62-64, (1990)], an ocular hypertension model was prepared to examine the ocular tension lowering effect of the test compounds. After general anaesthesia with urethane, the ocular tension of the test rabbit was determined by use of a tonometer (Alcon Applanation Pneumatonography).
After a local anaesthetic was applied to the rabbit eye by dropping, 0.1 ml of 5% sodium chloride solution was injected into the vitreous body through a 30-gauge injection needle. At the time, 30 minutes after injection, when ocular hypertension was confirmed, 50 μl of a sample solution was applied by dropping. Then, the ocular tension was determined over 2 hours at intervals of 30 minutes.
The area (AUC) between the ocular tension curve obtained from the control group (without drug application) and that obtained from the drug application group, and the maximum value of the lowered ocular tension were calculated to regard as the indices of ocular tension lowering effect.

The conditions of assay [2]: eye application; cited from earlier work.

In the case of `CCCc1nc(C(C)(C)O)c(C(=O)O)n1Cc1ccc(-c2ccccc2C(=O)C(=O)O)cc1` [Compound H], in assay [1] (applied concentration 1.0%), the “AUC (area between the ocular tension curves of control group and drug application group)” value (“AUC” below) is 5.58 mmHg · hr; the “Maximum value of the lowered ocular tension” value was 8.6 mmHg.
As to `CCCCC(=O)N(Cc1ccc(-c2ccccc2-c2nnn[nH]2)cc1)CC1(C(=O)O)CCCC1` [CGP 49870], the “ocular tension lowering activity” value in assay [2] was “showed ocular tension lowering activity”.
Regarding `CCCc1nc(C(C)(C)O)c(C(=O)O)n1Cc1ccc(-c2ccccc2C(=O)O)cc1` [Compound B], in assay [1] (applied concentration 1.0%), the “AUC” value was 3.21 mmHg · hr; the “Maximum value of the lowered ocular tension” value was 2.6 mmHg.
Turning to `CCCCc1nc(C(C)(C)O)c(C(=O)O)n1Cc1ccc(-c2ccccc2C(=O)O)cc1` [Compound E], in assay [1] (applied concentration 1.0%), the “AUC” value is listed as 4.90 mmHg · hr; the “Maximum value of the lowered ocular tension” value was 7.6 mmHg.
On to `CCCc1nc(C(C)(C)O)c(C(=O)O)n1Cc1ccc(-c2ccccc2-c2nn[nH]n2)cc1` [Compound A], for which, in assay [1] (applied concentration 1.0%), the “AUC” value was found to be 11.18 mmHg · hr; the “Maximum value of the lowered ocular tension” value is 9.8 mmHg.
`CCCc1nc(CC)c(C(=O)O)n1Cc1ccc(-c2ccccc2-c2nn[nH]n2)cc1` [Compound D]: in assay [1] (applied concentration 0.2%), the “AUC” value came to 6.21 mmHg · hr; the “Maximum value of the lowered ocular tension” value was 6.4 mmHg.
For the molecule `CCc1nc2cccc(C(=O)O)c2n1Cc1ccc(-c2ccccc2C(=O)C(=O)O)cc1` [Compound I], in assay [1] (applied concentration 1.0%), the “AUC” value came out at 5.33 mmHg · hr; the “Maximum value of the lowered ocular tension” value was 7.3 mmHg.
On to `CCCCc1nc(Cl)c(CO)n1Cc1ccc(-c2ccccc2-c2nnn[nH]2)cc1` [DUP 753, reference compound], for which, in assay [1] (applied concentration 1.0%), the “AUC” value is 0.28 mmHg · hr; the “Maximum value of the lowered ocular tension” value was found to be 1.3 mmHg. In assay [1] (applied concentration 3.0%), the “AUC” value turned out to be 2.38 mmHg · hr; the “Maximum value of the lowered ocular tension” value was 3.5 mmHg.
`CCCCC(=O)N(Cc1ccc(-c2ccccc2-c2nnn[nH]2)cc1)[C@H](C(=O)O)C(C)C` [CGP 48933]: in assay [2], the “ocular tension lowering activity” value was “showed ocular tension lowering activity”.
For the molecule `CCCc1nc(C(C)C)c(C(=O)O)n1Cc1ccc(-c2ccccc2-c2nn[nH]n2)cc1` [Compound C], in assay [1] (applied concentration 1.0%), the “AUC” value is recorded as 3.98 mmHg · hr; the “Maximum value of the lowered ocular tension” value turned out to be 2.7 mmHg.
Consider `CCCc1nc(C(C)O)c(C(=O)O)n1Cc1ccc(-c2ccccc2-c2nn[nH]n2)cc1` (stereo not drawn) [Compound G], for which, in assay [1] (applied concentration 1.0%), the “AUC” value is 5.45 mmHg · hr; the “Maximum value of the lowered ocular tension” value was found to be 8.6 mmHg.
Turning to `CCCc1nc(C(C)(C)O)c(C(=O)O)n1Cc1ccc(-c2nn[nH]n2)cc1` [Compound F], in assay [1] (applied concentration 1.0%), the “AUC” value was found to be 4.93 mmHg · hr; the “Maximum value of the lowered ocular tension” value worked out at 4.7 mmHg.
